# Laboratory results reported in patent publication US5958770A, “Glycoalkaloids” (priority 1990, dated 1999).
# Read-outs that look alike come from different tables or passages of the source.
# Experiments:
# [1] = system: human cells, ovarian cancer cells, melanoma cells, cells infected with viruses, normal fibroblasts, normal bone marrow cells, leukemic cells and normal …; assay: Inhibition of the action of the mixture of solasodine glycosides by free sugars and sugars bound to bovine serum albumin; type: cell-based; settings: free sugar and bound to bovine serum albumin
# [2] = in vitro; settings: human, pwm stimulated lymphocytes
# Experimental: (§5) This was cultured for 48 hours and pulsed with tritiated thymidine for a further 24 hours. In the inhibition studies, the cell concentration was 8×10^5 /ml.
# (§6) All cells were harvested by vacuum filtration by washing in 250 μl of each of phosphate buffered saline, 5% trichloroacetic acid, 1.0M NaCl and 95% ethanol and subjected to β-scintillatian counting. Similarly, peripheral human blood lymphocytes were isolated and cultured 2×10^5 lymphocytes in CO2 1640TCM 10% HIFCS. Lymphocytes were stimulated with 20 μg/ml PHA, Con A or PWM, and cultured for 48 hrs followed by a 24 hr pulse. […] Cell concentrations were 8×10^4 /well total volume 250 μl. The dpm of the experimental replicates were expressed as a percentage of the mean value of the controls, and the mean value of the experimental replicates calculated.
# [3] = system: ovarian cancer cells, HeLa cells, lymphoblastoid cells, fibroblasts; assay: Cytotoxicity / inhibition of tritiated thymidine uptake, cell types taken together; settings: for inhibition of tritiated thymidine uptake / cytotoxicity (words): 11.3 μM/L, various cell types
# Experimental: (§1) The inhibition of cell replication by steroid alkaloids is determined by the inhibition of the incorporation of ^3 H thymidine into DNA. Using this technique, it should be possible to monitor any preferential inhibition of uptake of ^3 H thymidine by cancer cells.
# (§2) Cells were maintained as monolayers in RPM1-1640 tissue culture media (Grant Island Biological Co) buffered with N-2-hydroxy-ethylpiperazine-N-2-ethanesulphonic acid pH 7.5 and supplemented with 10% heat inactivated fetal calf serum (FCS): (i) a human ovarian cancer cell line (C180-135), (ii) HeLa cells, (iii) human fibroblasts, and (iv) as a cell suspension of lymphoblastoid cells (EBV transformed lymphocytes). Monolayers were trypsinized to form a cell suspension. […] Cell concentration was adjusted to 2×10^5 cells/ml, and 2×10^4 cells were added in replicates of 10 to the wells (1×10^5 /ml well) of HA microtitre plates (Millipore Corp., USA). The cells were preincubated at 37.5° C. for 7 hours prior to the addition of 50 μl of the cytotoxic drug followed by the addition of 50 μl 5 uCi/ml of ^3 H thymidine, in the same tissue culture media 21 hours later. Incubation was continued for a total of 24 hours, which includes the pre-incubation time.
# (§3) Appropriate DMSO cytotoxicity studies were also conducted. Solasodine glycosides were supplied as a mixture (BEC), and as separate components, solamargine, solasonine, a mixture of di- and mono-glycosides and the aglycone solasodine. All cytotoxic drugs were further diluted with HIFCS/TCM before testing. 5×10^4 ovarian cancer cells (200 μl/chamber of a chamber of microscope slide (Lab Tek Miles Scientific) were used. Controls received 50 μl HIFCS/TCM and experimental chambers 50 μl of solasodine glycosides (BEC) 1.5-3.8 μM/L after 7 hrs preincubation, and incubated for a further 3 hrs. Similarly, the cells were treated with the aglycone solasodine 19.4-96.8 μM/L. The cells were fixed and examined by the Papanicolaou method.
# [4] = system: ovarian cancer cells; assay: Inhibition of tritiated thymidine uptake, ovarian cancer cells
# Experimental: as §1, §2, §3
# [5] = in vitro; settings: human, con a stimulated lymphocytes
# Experimental: as §5, §6
# [6] = system: unstimulated and stimulated lymphocytes; settings: for cytotoxicity (words): unstimulated and stimulated lymphocytes
# Experimental: as §5, §6
# [7] = in vitro; settings: human, pha stimulated lymphocytes
# Experimental: as §5, §6
# [8] = system: HeLa cells; assay: cells
# Experimental: as §1, §2, §3
# [9] = system: human fibroblasts; assay: cells
# Experimental: as §1, §2, §3
# [10] = system: lymphoblastoid cells (EBV transformed lymphocytes); assay: cells
# Experimental: as §1, §2, §3
# [11] = in vitro; settings: human, unstimulated lymphocytes
# Experimental: as §5, §6
# [12] = system: Con A stimulated lymphocytes; assay: DMG cytotoxicity with carbohydrates, Con A stimulated lymphocytes; type: cell-based, human
# Experimental: (§4) A mixture of solasodine glycosides (BEC), of which the active compound is solamargine and from which the aglycone solasodine is derived was prepared for use in cytotoxicity assays as determined by the uptake of tritiated thymidine. Inhibition studies were carried out with lactose, lactosyl-albumin, galactose or rhamnose (Sigma Chemical Co., USA). All experimental replicates were related to their own controls. Total volume of replicates was 250 μl (carbohydrates added in 50 μl tissue culture media+10% fetal calf serum), and the cell concentrations were 8×10^4 /ml.
# [13] = system: unstimulated lymphocytes; assay: DMG cytotoxicity with carbohydrates, unstimulated lymphocytes; type: cell-based, human
# Experimental: as §4
# [14] = system: Sarcoma 180; assay: Survival of mice with Sarcoma 180, with and without rhamnose; type: in vivo
# Experimental: Herston White mice with a body weight of approximately 30 g and aged 8-10 weeks served as recipients. Twelve mice were randomly chosen for each experimental group.
# Sarcoma 180 tumour cells (5×10^5) were inoculated intraperitoneally into mice. This caused a mortality of 100% with a median survival time of 20 days in the control groups. A standard mixture of glycoalkaloids (BEC) was dissolved in dimethylsulfoxide at a concentration of 0.5 g BEC/100 ml dimethylsulfoxide. Similar solutions were made up but also contained 0.3125, 0.625 and 0.9375 g of rhamnose. These solutions were administered intraperitoneally in concentrations of 8 mg/kg animal weight for BEC (FIG. 9) without (-.tangle-solidup.-), and with 5 mg (-.quadrature.-), 10 mg (-.cndot.-) and 15 mg (-Δ-) rhamnose/kg animal weight. The first dose was given 0.5 hours after administration of the Sarcoma 180 tumour cells. The remaining three doses were given at daily intervals. Dimethylsulfoxide and rhamnose had no effect on Sarcoma 180 activity in the absence of BEC (-.smallcircle.-).
# [15] = system: HeLa cells; assay: Solamargine cytotoxicity in presence and absence of carbohydrates, HeLa cells; type: cell-based, human; settings: HeLa cells
# Experimental: as §4
# [16] = system: fibroblasts; assay: Solamargine cytotoxicity in presence and absence of carbohydrates, fibroblasts; type: cell-based, human; settings: fibroblasts
# Experimental: as §4
# [17] = system: ovarian cancer cells; assay: Solamargine cytotoxicity in presence and absence of carbohydrates, ovarian cancer cells; type: cell-based, human; settings: ovarian cancer cells
# Experimental: as §4
# [18] = system: lymphoblastoid cells; assay: Solamargine cytotoxicity in presence and absence of carbohydrates, lymphoblastoid cells; type: cell-based; settings: lymphoblastoid cells
# Experimental: as §4
# [19] = system: unstimulated lymphocytes; assay: Inhibition of tritiated thymidine uptake, unstimulated lymphocytes; settings: much higher concentrations; unstimulated lymphocytes (FIG. 8e)
# Experimental: as §5, §6
# [20] = system: ovarian cancer cells; assay: Morphological examination of ovarian cancer cells (Papanicolaou); type: cell-based, human; settings: 19.4-96.8 μM/L; FIG. 2A
# Experimental: Appropriate DMSO cytotoxicity studies were also conducted.
# A human ovarian cancer cell line (C180-135) was grown as mono layers and trypsinized to form a cell suspension. The cells were adjusted to a concentration of 1×10^5 /ml (viability ≥95%) and 200 μl placed in each of the eight chambers of microscope chamber slides (Lab Tek, Miles Scientific). After 21 hours preincubation at 37.5° C., 50 μl of supplemented tissue culture media were added to the control chambers. To the other chambers were added 50 μl of solasodine glycosides (BEC) to give final concentrations of 3, 4.8, 6.7, 7.7, 9.6, 11.1 and 15.3 μM/L. Similarly, to a separate chamber slide was added the aglycone solasodine (19.4-96.8 μM/L). The slides were incubated at 37.5° C. for a further 3 hours, and the cells fixed in 95% V/V alcohol and stained by the Papanicolaou method. Two other chamber slides were prepared in a similar manner, but the solasodine glycosides and the aglycone were added at a final concentration of 0.77, 1.5, 2.3, 3.1 and 3.8 μM/L after 7 hours preincubation, and they incubated for a further 17 hours.
# [21] = 100 mg solasodine/kg; cited from earlier work
molecule,measurement,setting,value
CC(=O)N[C@H]1C(O)O[C@H](CO)[C@@H](O)[C@@H]1O (stereo partly shown) [NAc glucosamine],inhibitory effect on the action of the mixture of solasodine glycosides,[1],inhibitory effects
CC(=O)N[C@@H]1[C@@H](O)[C@H](O)[C@@H](CO)O[C@@H]1O [NAc glucose],inhibitory effect on the action of the mixture of solasodine glycosides,[1],inhibitory effects
CC(=O)N[C@@H]1C(O)O[C@H](CO)[C@@H](O)[C@@H]1O (stereo partly shown) [NAc mannosamine],inhibitory effect on the action of the mixture of solasodine glycosides,[1],inhibitory effects
CC(=O)NC1C(O)OC(CO)C(O)C1O (stereo not shown) [NAc mannose],inhibitory effect on the action of the mixture of solasodine glycosides,[1],inhibitory effects
"C[C@@H]1CC[C@@]2(NC1)O[C@H]1C[C@H]3[C@@H]4CC=C5C[C@@H](O[C@@H]6O[C@H](CO)[C@H](O)[C@H](O[C@@H]7O[C@H](CO)[C@@H](O)[C@H](O)[C@H]7O)[C@H]6O[C@@H]6O[C@@H](C)[C@H](O)[C@@H](O)[C@H]6O)CC[C@]5(C)[C@H]4CC[C@]3(C)[C@H]1[C@@H]2C [Solasonine, solasonine]",viability at 11.3 µM,[2],110 ± 3.8%
same,inhibition of tritiated thymidine uptake / cytotoxicity (words),[3],ineffective
same,inhibition of tritiated thymidine uptake / cytotoxicity (words),[3]; listed as solasonine,not cytotoxic
same,viability at 11.3 µM,"[4]; Homo sapiens, read-out: Percentage Cell Survival",93 ± 8%
same,viability at 11.3 µM,[5],97 ± 7%
same,cytotoxicity (words),[6],ineffective
same,cytotoxicity (words),[6]; listed as solasonine,absence of any effect
same,viability at 11.3 µM,[7],103 ± 5.7%
same,viability at 11.3 µM,"[8]; Homo sapiens, HeLa, read-out: Percentage Cell Survival",105 ± 9.5%
same,viability at 11.3 µM,"[9]; Homo sapiens, Fibroblast, read-out: Percentage Cell Survival",96 ± 8.3%
same,viability at 11.3 µM,"[10]; Homo sapiens, Lymphoblastoid cell, read-out: Percentage Cell Survival",117 ± 8%
same,viability at 11.3 µM,[11],97 ± 11.8%
O=C[C@H](O)[C@@H](O)[C@H](O)[C@H](O)CO [glucose],inhibition of the action of DMG,[12],inhibit the action of DMG
same,inhibition of the action of DMG,[13],do not inhibit DMG
same,inhibitory effect on the action of the mixture of solasodine glycosides,[1],inhibitory effects
same,effect on S180 activity in the absence of BEC,[14],no effects
"OC[C@H]1O[C@@H](O[C@H]2[C@H](O)[C@@H](O)C(O)O[C@@H]2CO)[C@H](O)[C@@H](O)[C@H]1O (stereo partly shown) [lactose, reference compound]",inhibition of solamargine cytotoxicity,[15],not inhibited
same,inhibitory effect on the action of the mixture of solasodine glycosides,[1],inhibitory effects
same,inhibition of solamargine cytotoxicity,[16],completely inhibited
same,inhibition of solamargine cytotoxicity,[17],Partial inhibition
same,inhibition of solamargine cytotoxicity,[18],partial inhibition
O=C[C@@H](O)[C@@H](O)[C@H](O)[C@H](O)CO [mannose],inhibitory effect on the action of the mixture of solasodine glycosides,[1],inhibitory effects
C[C@H]1CC[C@@H]2[C@@H](C)[C@H]3[C@H](C[C@H]4[C@@H]5CC=C6C[C@@H](O[C@@H]7O[C@H](CO)[C@H](O)[C@H](O[C@@H]8O[C@H](CO)[C@@H](O)[C@H](O)[C@H]8O)[C@H]7O[C@@H]7O[C@@H](C)[C@H](O)[C@@H](O)[C@H]7O)CC[C@]6(C)[C@H]5CC[C@]34C)N2C1 [solanine],lysosomotropic/mitochondrial inhibition,[3],lack of lysosomotropic/mitochondrial inhibition
C[C@@H]1CC[C@@]2(NC1)O[C@H]1C[C@H]3[C@@H]4CC=C5C[C@@H](O)CC[C@]5(C)[C@H]4CC[C@]3(C)[C@H]1[C@@H]2C [solasodine],lysosomotropic/mitochondrial inhibition,[3],lack of lysosomotropic/mitochondrial inhibition
same,cytotoxic effect of aglycone,[3]; equivalent concentrations of solamargine (FIG. 6),does not exert a cytotoxic effect
same,cytotoxic effect of aglycone,[4]; higher concentrations (FIG. 7),increase in cytotoxicity
same,cytotoxic effect of aglycone,[19],substantial effect on unstimulated lymphocytes
same,cytotoxic effect of aglycone,[6]; equivalent concentrations of DMG,does not exert a cytotoxic effect
same,morphological effect on ovarian cancer cells,[20],did not have any observable effect
same,deaths in mice,[21],does not produce any deaths
same,effectiveness against S180,"[14]; aglycone, 100 mg/kg",not effective
"CC[C@]1(O)C[C@@H]2CN(CCc3c([nH]c4ccccc34)[C@@](C(=O)OC)(c3cc4c(cc3OC)N(C)[C@H]3[C@@](O)(C(=O)OC)[C@H](OC(C)=O)[C@]5(CC)C=CCN6CC[C@]43[C@@H]65)C2)C1 [vinblastine, reference compound]",CC50,[2],10.8 µM
same,cytotoxicity to normal cells relative to cancer cells,[3]; normal versus cancer cells,equally or more cytotoxic to normal cells relative to cancer cells
same,IC50,"[4]; Homo sapiens, read-out: LD50 (dose to inhibit 50% tritiated thymidine uptake)",9.5 µM
same,CC50,[5],7.8 µM
same,CC50,[7],19.2 µM
same,TR50 (thymidine ratio relative to ovarian cancer cells),[8]; HeLa / OvCa,0.28
same,IC50,"[8]; Homo sapiens, HeLa, read-out: LD50 (dose to inhibit 50% tritiated thymidine uptake)",2.7 µM
same,TR50 (thymidine ratio relative to ovarian cancer cells),[9]; FB / OvCa,0.2
same,IC50,"[9]; Homo sapiens, Fibroblast, read-out: LD50 (dose to inhibit 50% tritiated thymidine uptake)",1.9 µM
same,TR50 for fibroblasts/lymphoblastoid cells,[9]; fibroblasts/lymphoblastoid cells,0.73
same,TR50 (thymidine ratio relative to ovarian cancer cells),[10]; LCL / OvCa,0.27
same,IC50,"[10]; human gammaherpesvirus 4, LCL, read-out: LD50 (dose to inhibit 50% tritiated thymidine uptake)",2.6 µM
same,CC50,[11],11 µM
galactose [reference compound],inhibition of solamargine cytotoxicity,[15],not inhibited
same,inhibitory effect on the action of the mixture of solasodine glycosides,[1],inhibitory effects
same,inhibition of solamargine cytotoxicity,[16],completely inhibited
same,inhibition of solamargine cytotoxicity,[17],partial inhibition
same,inhibition of solamargine cytotoxicity,[18],partial inhibition
rhamnose,inhibition of the action of DMG,[12],inhibit the action of DMG
same,inhibition of the action of DMG,[13],do not inhibit DMG
same,inhibition of solamargine cytotoxicity,[16],inhibition by rhamnose is also demonstrable
same,effect on S180 activity in the absence of BEC,[14],no effects
same,inhibition of the efficacy of BEC,[14]; mice with S180,inhibits the efficacy of BEC
